From publication PMC8958325 (iScience, 2022)

Legend:
PCNA ubiquitination = experiment: Alpha assay for overall PCNA ubiquitination; assay type: biochemical, human; settings: for IC50: read-out: IC50 PCNA–Ub, SE and 95% CI in cell
Uba1 = target: T1, Uba1 (Homo sapiens, UniProt P22314); experiment: Uba1∼ubiquitin thioester formation Alpha assay; assay type: biochemical; settings: for inhibition of Uba1∼ubiquitin thioester formation: Alpha assay
T1 sequence (P22314 1-1058): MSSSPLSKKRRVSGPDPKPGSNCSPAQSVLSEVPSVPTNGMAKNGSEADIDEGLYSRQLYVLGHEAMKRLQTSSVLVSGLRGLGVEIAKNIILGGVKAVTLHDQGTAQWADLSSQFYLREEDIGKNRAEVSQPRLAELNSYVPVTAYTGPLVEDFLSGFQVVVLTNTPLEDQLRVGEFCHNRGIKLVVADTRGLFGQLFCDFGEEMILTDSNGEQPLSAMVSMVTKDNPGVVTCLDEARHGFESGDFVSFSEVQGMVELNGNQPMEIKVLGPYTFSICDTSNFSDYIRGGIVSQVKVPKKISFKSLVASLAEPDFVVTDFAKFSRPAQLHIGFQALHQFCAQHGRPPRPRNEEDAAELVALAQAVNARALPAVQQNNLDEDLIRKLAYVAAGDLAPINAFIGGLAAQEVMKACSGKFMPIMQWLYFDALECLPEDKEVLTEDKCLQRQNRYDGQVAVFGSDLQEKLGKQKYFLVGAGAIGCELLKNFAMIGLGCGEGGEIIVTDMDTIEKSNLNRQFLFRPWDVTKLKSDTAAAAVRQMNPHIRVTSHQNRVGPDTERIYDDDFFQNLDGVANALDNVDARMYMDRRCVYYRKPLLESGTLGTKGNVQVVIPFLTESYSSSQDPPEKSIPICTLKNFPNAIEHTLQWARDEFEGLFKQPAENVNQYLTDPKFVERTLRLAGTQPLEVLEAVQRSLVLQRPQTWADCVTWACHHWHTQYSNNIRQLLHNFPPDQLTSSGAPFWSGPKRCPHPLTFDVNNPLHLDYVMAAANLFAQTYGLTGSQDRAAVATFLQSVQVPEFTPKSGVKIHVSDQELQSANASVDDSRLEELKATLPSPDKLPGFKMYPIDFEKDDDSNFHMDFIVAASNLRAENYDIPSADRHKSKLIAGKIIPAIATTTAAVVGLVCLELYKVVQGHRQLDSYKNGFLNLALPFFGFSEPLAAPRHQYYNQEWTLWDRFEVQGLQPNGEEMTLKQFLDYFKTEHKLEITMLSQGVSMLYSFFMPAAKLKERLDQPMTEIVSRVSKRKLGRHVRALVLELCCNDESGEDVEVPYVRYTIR

Mms2–Ubc13 = Mms2–Ubc13 (Homo sapiens, UniProt P61088+Q15819); experiment: Mms2–Ubc13∼ubiquitin thioester formation gel-based assay; assay type: biochemical; settings: at 100 μM, silver-stained gel
HeLa cells = experiment: Cell survival; assay type: cell-based; settings: Homo sapiens, 24 h, read-out: IC50 (μM) for cell survival
Rad6 [1] = target: T2, Rad6 (Homo sapiens, UniProt P63146); experiment: biochemical; assay type: biochemical; settings: for inhibition of formation of the Rad6∼ubiquitin thioester conjugate: Alpha assay
Rad18 [2] = target: Rad18 (Homo sapiens, UniProt P63146); experiment: biochemical; assay type: biochemical; settings: for inhibition of Rad18 autoubiquitination: Alpha assay
Rad6–Rad18 interaction = Rad6–Rad18 interaction (Homo sapiens, UniProt P63146); experiment: Rad6–Rad18 interaction Alpha assay; assay type: binding; settings: for disruption of the Rad6–Rad18 interaction: Alpha assay
Rad6–Ubr1 interaction = Rad6–Ubr1 interaction (Homo sapiens, UniProt P63146); experiment: Rad6–Ubr1 interaction Alpha assay; assay type: binding
Rad6 [3] = target: T2, Rad6; experiment: Microscale thermophoresis, binding to GFP-Rad6
Rad18 [4] = target: Rad18 (Homo sapiens, UniProt Q9NS91); experiment: Microscale thermophoresis, binding to GFP-Rad18; settings: low concentrations used for the Rad6-binding study
Rad18 (Homo sapiens, UniProt Q9NS91), sequence (Q9NS91 whole entry): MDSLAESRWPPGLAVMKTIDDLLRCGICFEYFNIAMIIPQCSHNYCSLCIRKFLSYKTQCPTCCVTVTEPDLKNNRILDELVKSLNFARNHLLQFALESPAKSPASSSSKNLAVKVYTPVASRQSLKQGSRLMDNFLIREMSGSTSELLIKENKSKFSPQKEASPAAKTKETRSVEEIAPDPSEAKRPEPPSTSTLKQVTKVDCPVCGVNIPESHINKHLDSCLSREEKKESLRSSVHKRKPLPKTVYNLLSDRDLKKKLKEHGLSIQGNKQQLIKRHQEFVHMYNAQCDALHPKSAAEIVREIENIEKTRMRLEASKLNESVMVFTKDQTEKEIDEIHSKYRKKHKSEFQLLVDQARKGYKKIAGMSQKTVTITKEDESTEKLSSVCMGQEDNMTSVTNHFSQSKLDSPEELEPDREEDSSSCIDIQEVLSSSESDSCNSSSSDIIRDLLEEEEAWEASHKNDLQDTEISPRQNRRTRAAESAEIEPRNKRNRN

T2 sequence (P63146 whole entry): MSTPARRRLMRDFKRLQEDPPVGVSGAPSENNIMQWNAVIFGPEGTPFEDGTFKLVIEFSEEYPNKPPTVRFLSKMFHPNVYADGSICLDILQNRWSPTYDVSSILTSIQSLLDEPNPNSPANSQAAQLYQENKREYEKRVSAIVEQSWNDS
Rad6–Rad18 interaction, sequence (P63146 whole entry): as above
Rad18 (Homo sapiens, UniProt P63146), sequence (P63146 whole entry): as above
Mms2–Ubc13, sequence (P61088 whole entry): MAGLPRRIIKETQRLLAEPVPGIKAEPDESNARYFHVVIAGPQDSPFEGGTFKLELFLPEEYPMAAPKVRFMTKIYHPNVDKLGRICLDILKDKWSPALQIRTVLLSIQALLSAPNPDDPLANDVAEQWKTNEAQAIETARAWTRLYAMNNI
Mms2–Ubc13, sequence (Q15819 whole entry): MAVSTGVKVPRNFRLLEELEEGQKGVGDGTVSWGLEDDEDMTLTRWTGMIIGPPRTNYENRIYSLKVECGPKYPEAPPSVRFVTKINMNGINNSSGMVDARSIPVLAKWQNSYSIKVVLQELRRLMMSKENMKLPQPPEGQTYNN
Rad6–Ubr1 interaction, sequence (P63146 whole entry): as the sequence (P63146 whole entry) above

Row | SMILES | IC50 (PCNA ubiquitination) [µM] | IC50 (Uba1) [µM] | Mms2–Ubc13∼Ub inhibition on gel (Mms2–Ubc13) | IC50 (HeLa cells) [µM] | inhibition of Uba1∼ubiquitin thioester formation (Uba1) | effect on PCNA ubiquitination (PCNA ubiquitination; Figure 3G) | IC50 (Rad6 [1]) [µM] | inhibition of formation of the Rad6∼ubiquitin thioester conjugate (Rad6 [1]) | IC50 (Rad18 [2]) [µM] | inhibition of Rad18 autoubiquitination (Rad18 [2]) | IC50 (Rad6–Rad18 interaction) [µM] | disruption of the Rad6–Rad18 interaction (Rad6–Rad18 interaction) | IC50 (Rad6–Ubr1 interaction) [µM] | Kd (Rad6 [3]) [µM] | binding to Rad18 (Rad18 [4]) | Rad6–Ubr1 inhibition by Alpha (Rad6–Ubr1 interaction; at 50 μM)
1 | Cc1cc2c(-c3ccccc3)c3cc(C)c(N)cc3nc2cc1N [NSC 71947, 2,7-dimethyl-9-phenylacridine-3,6-diamine] | 24.9 | > 100 | No inhibition on gel at 100 μM | 11.8 |  |  |  |  |  |  |  |  |  |  |  | 
2 | O=C(O)C1CC=CCC1c1c2ccc(=O)cc-2oc2cc(O)ccc12 (stereo not drawn) [NSC 157411, 6-(3-Hydroxy-6-oxo-xanthen-9-yl)cyclohex-3-ene-1-carboxylic acid] | 8.44 | 24.8 | No inhibition on gel at 100 μM | 428 | inhibit |  |  |  |  |  |  |  |  |  |  | 
3 | O=C(O)c1cccc(-c2c3ccc(=O)cc-3oc3cc(O)ccc23)c1 [NSC 119888, 3-(3-hydroxy-6-oxoxanthen-9-yl)benzoic acid] |  | 53.8 | No inhibition on gel at 100 μM | 75.3 | inhibit |  |  |  |  |  |  |  |  |  |  | 
4 | COc1ccc(C2c3cc(O)c(OC)cc3Oc3cc(OC)c(O)cc32)cc1 [NSC 348718, 3,6-dimethoxy-9-(4-methoxyphenyl)-9H-xanthene-2,7-diol] | > 100 | > 100 | No inhibition on gel at 100 μM | 27.7 |  | inactive |  |  |  |  |  |  |  |  |  | 
5 | O=c1cc2oc3cc(O)c(O)cc3c(-c3ccccc3O)c-2cc1O [NSC 9037, 2,6,7-trihydroxy-9-(2-hydroxyphenyl)-3H-xanthen-3-one] | 4.54 | > 100 | No inhibition on gel at 100 μM | 62.2 |  |  | 8.9 | inhibit | 4.46 | inhibit | 6.19 | disrupt | > 50 | 3.79 ± 2.94 | very weak binding | 
6 | CN(C)c1ccc(-c2c3cc(O)c(=O)cc-3oc3cc(O)c(O)cc23)cc1 [NSC 80693, 9-[4-(dimethylamino)phenyl]-2,6,7-trihydroxy-3H-xanthen-3-one] | 4.28 | > 100 | No inhibition on gel at 100 μM | 7.67 |  |  | 91.8 | inhibit | 13.2 | inhibit | 14.6 | disrupt |  |  |  | Little inhibition by Alpha at 50 μM
7 | O=C(O)c1ccc(-c2c3ccc(=O)cc-3oc3cc(O)ccc23)cc1 [NSC 119891, 4-(3-hydroxy-6-oxoxanthen-9-yl)benzoic acid] |  | > 100 | No inhibition on gel at 100 μM | 208 |  |  |  |  |  |  |  |  |  |  |  | 
